From BindingDB's records for doi:10.1021/jm2004442 (Amgen, 2011)

Biological target: RAC-alpha serine/threonine-protein kinase (Homo sapiens, UniProt P31749)
Test: Inhibition of PI3K-mediated Akt phosphorylation at Ser 473 in human U87MG cells after 2 hrs by alphascreen assay

Chain of RAC-alpha serine/threonine-protein kinase (P31749 whole entry): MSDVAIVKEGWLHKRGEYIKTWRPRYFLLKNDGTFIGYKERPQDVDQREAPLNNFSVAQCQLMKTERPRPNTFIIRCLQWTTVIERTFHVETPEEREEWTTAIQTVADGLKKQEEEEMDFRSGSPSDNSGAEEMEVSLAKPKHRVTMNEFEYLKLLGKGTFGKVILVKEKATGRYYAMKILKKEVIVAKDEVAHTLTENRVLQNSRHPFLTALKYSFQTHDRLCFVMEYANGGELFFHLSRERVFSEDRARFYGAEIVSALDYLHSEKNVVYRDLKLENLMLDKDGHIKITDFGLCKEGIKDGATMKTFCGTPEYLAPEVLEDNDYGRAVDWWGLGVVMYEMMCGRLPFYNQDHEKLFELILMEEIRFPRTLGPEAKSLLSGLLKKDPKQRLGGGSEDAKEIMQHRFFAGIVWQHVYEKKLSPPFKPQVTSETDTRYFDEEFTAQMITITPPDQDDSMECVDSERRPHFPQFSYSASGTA

Row | IC50 [nM] | SMILES
1 | 101 | Nc1nc2ccc(-c3cnc(Cl)c(NS(=O)(=O)c4ccc(F)cc4)c3)cc2o1
2 | 13 | CC(=O)Nc1cn2nc(-c3cnc(Cl)c(NS(=O)(=O)c4ccc(F)cc4)c3)ccc2n1
3 | 335 | CC(=O)Nc1nc2ccc(-c3cnc(Cl)c(NS(=O)(=O)c4ccc(F)cc4)c3)cc2[nH]1
4 | > 12000 | Nc1nc2ccc(-c3cnc(Cl)c(NS(=O)(=O)c4ccc(F)cc4)c3)cc2[nH]1
5 | > 12000 | O=S(=O)(Nc1cc(-c2ccc3ncoc3c2)cnc1Cl)c1ccc(F)cc1
6 | > 12000 | O=S(=O)(Nc1cc(-c2ccc3nc[nH]c3c2)cnc1Cl)c1ccc(F)cc1
7 | > 12000 | Nc1cn2cc(-c3cnc(Cl)c(NS(=O)(=O)c4ccc(F)cc4)c3)ccc2n1
8 | 118 | CC(=O)Nc1cn2cc(-c3cnc(Cl)c(NS(=O)(=O)c4ccc(F)cc4)c3)ccc2n1
9 | > 12000 | O=S(=O)(Nc1cc(-c2ccc3nncn3c2)cnc1Cl)c1ccc(F)cc1
10 | 574 | O=S(=O)(Nc1cc(-c2ccc3nccn3c2)cnc1Cl)c1ccc(F)cc1
11 | 1100 | CC(=O)Nc1nc2ccc(-c3cnc(Cl)c(NS(=O)(=O)c4ccc(F)cc4)c3)cc2o1
12 | 415 | Nc1cn2nc(-c3cnc(Cl)c(NS(=O)(=O)c4ccc(F)cc4)c3)ccc2n1
13 | > 12000 | O=S(=O)(Nc1cc(-c2ccc3sncc3c2)cnc1Cl)c1ccc(F)cc1
